The conditions of data set [1]: as disclosed in Patent Literature 1 (WO 2015/095515 A); cited from earlier work.
The next data set has as its target T1, human sGC (Homo sapiens, UniProt Q02153).
T1 construct: expressed in transfected cells; host or cells: CHO-K1 cells (Chinese hamster ovary), stably co-expressing mouse CNGA2 as the calcium read-out channel
T1 sequence (Q02153 1-619): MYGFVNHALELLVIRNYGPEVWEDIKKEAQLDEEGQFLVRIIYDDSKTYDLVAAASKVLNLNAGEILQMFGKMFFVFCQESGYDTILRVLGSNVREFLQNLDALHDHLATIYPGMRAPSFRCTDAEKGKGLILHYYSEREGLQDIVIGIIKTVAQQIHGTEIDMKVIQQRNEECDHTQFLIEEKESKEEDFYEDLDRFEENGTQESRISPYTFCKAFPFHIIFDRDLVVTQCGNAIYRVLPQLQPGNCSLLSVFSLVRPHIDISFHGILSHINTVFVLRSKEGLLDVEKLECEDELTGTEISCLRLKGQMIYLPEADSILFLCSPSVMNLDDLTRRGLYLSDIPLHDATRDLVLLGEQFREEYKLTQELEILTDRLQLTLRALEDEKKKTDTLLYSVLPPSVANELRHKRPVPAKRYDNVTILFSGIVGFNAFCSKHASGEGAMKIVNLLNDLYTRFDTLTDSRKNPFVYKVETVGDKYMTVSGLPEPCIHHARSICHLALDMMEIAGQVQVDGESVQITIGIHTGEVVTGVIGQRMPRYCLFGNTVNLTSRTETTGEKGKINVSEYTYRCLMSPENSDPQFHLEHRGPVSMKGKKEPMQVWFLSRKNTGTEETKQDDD
T1 sequence (Q02108 1-690 partner): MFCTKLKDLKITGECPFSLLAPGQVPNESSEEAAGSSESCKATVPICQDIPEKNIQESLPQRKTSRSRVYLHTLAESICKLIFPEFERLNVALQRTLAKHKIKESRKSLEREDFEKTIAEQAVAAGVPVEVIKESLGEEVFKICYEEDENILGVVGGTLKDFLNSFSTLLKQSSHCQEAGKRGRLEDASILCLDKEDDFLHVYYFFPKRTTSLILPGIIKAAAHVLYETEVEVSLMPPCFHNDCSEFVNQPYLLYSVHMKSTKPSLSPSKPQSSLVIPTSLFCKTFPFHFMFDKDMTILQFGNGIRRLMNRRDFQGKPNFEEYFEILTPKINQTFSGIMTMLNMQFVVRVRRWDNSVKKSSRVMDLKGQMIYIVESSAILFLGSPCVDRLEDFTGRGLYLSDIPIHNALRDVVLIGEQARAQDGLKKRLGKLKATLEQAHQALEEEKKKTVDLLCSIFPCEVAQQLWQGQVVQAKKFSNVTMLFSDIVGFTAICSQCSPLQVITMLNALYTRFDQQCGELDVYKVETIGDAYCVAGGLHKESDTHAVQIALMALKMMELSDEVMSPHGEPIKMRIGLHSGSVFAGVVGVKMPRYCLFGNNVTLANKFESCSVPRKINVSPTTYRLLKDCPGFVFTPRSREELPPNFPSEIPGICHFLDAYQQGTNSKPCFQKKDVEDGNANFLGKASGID
The experiment in a line: Measurement of sGC activating effect in CHO-K1 cells stably expressing human sGC and mouse CNGA2. The format is cell-based. Conditions: CHO-K1 cells expressing human sGC and mouse CNGA2, Fura2 calcium readout, 10 μmol/L ODQ in assay buffer. How it is done:
Chinese Hamster ovary cells (CHO-K1 cells) modified for stably expressing human sGC α subunit and β subunit, and a mouse cyclic nucleotide gated channel (CNGA2) were used in the test.
The CHO-K1 cells stably expressing human sGC and mouse CNGA2 were cultured at 37° C. in a F-12 medium supplemented with 10% (v/v) fetal bovine serum (FBS), penicillin (100 U/mL), streptomycin (100 μg/mL), G418 (250 μg/mL), and Zeocin (250 μg/mL). The cells were suspended in a culture medium, seeded in a 96 well plate, and cultured at 37° C. for 24 hours. The cells were washed with an assay buffer 1 (140 mmol/L of sodium chloride, 5 mmol/L of potassium chloride, 0.5 mmol/L of magnesium chloride, 0.01 mmol/L of calcium chloride, 10 mmol/L of glucose, 0.4 mmol/L of magnesium sulfate, 10 mmol/L of 4-(2-hydroxyethyl)piperazine-1-yl ethanesulfonic acid, 125 μmol/L of sulfinpyrazone, pH 7.4), and then an indicator solution in which Fura2-AM as a fluorescent Ca2+ indicator is dissolved in assay buffer 1 at a concentration of 5 μmol/L was added thereto, and cultured at 37° C. for 60 minutes. The culture medium was removed, the cells were washed with assay buffer 1, the test compound solution was added thereto, and cultured at room temperature for 10 minutes. The plate was mounted on a fluorescence microplate reader (FlexStation II, available from Molecular Devices) with setting of excitation wavelengths of 340 and 380 nm and a detection wavelength of 510 nm, an intracellular calcium concentration was measured as a fluorescent intensity ratio obtained from each excitation wavelength.
In this test, the solution of the test compound was prepared by dissolving each test compound in DMSO at a concentration of 10 mmol/L, and then diluting the solution with assay buffer 2 (140 mmol/L of sodium chloride, 5 mmol/L of potassium chloride, 0.5 mmol/L of magnesium chloride, 1 mmol/L of calcium chloride, 10 mmol/L of glucose, 0.4 mmol/L of magnesium sulfate, 10 mmol/L of 4-(2-hydroxyethyl)piperazine-1-yl ethanesulfonic acid, 125 μmol/L of sulfinpyrazone, 100 μmol/L of isobutylmethylxanthine, 10 μmol/L of 1H-[1,2,4]-oxadiazole [4,3-a]quinoxaline-1-on (hereinafter, referred to as ODQ), pH 7.4), in order to adjust the concentration of 10 μmol/L for testing. As a control solution, a DMSO diluted solution was used, instead of the test compound solution.
The activity of the test compound was calculated as an increase rate (%) of the sGC activity in the test compound solution relative to the sGC activity in the control solution, by dividing a fluorescent intensity ratio in adding the test compound by a fluorescent intensity ratio of the control solution, and subtracting the sGC activity in the control solution (100%) therefrom. An EC50 value was calculated from the activity of the test compound at concentrations of 0.0001, 0.001, 0.003, 0.01, 0.03, 0.1, 1, and 10 μmol/L, using a 4 parameter losgistic model from Assay Explorer (available from Dssault Systèmes BIOVIA).

A short description of data set [2]: Determination of Log D value (flask shaking method). The format is physicochemical. The settings on record: pH 6.8; partition between n-octanol and second solution for the disintegration test (16th revised Japanese Pharmacopoeia), room temperature. How it is done:
More specifically, the Log D is more preferably 1.6 or more and 2.3 or less, still more preferably 1.8 or more and 2.2 or less, and particularly preferably 1.8 or more and 2.1 or less. Here, the Log D value in the present invention is a compound partition coefficient between n-octanol and a second solution of a disintegration test of the 16th revised Japanese Pharmacopoeia.
The Log D value was determined using a flask shaking method, where a test compound partition coefficient between n-octanol and the second solution for the disintegration test defined in the 16th revised Japanese Pharmacopoeia was calculated. Specifically, in a microtube containing 2 mg of the test compound, n-octanol (0.25 mL) and the second solution for the disintegration test (0.25 mL) were mixed. The tube was shaken in a multi shaker at room temperature for 60 minutes, and allowed to stand until the two phases were completely separated. In the microtube, 10 μL of an n-octanol phase was diluted with 190 μL of 85% methanol and mixed, thereby obtaining an organic phase test solution. 100 μL of the second solution phase for the disintegration test was diluted with 100 μL of 50% methanol, and mixed, thereby obtaining an aqueous phase test solution. The organic phase test solution and the aqueous phase test solution were filtered, respectively, and the concentration of the test compound in these test solutions were measured, using high performance liquid chromatography. Then, from the measured concentration and dilution rate, the Log D was calculated.
That is, the Log D of the present specification is represented by the following equation: Log D=Log10([concentration of test compound in organic phase test solution]/[concentration of test compound in aqueous phase test solution])+1 [Equation 1]
The second solution for the disintegration test herein refers to, as defined in the 16th revised Japanese Pharmacopoeia, a liquid obtained by adding to 250 mL of a 0.2 mol/L potassium dihydrogenphosphate reagent, 118 mL of a 0.2 mol/L sodium hydroxide reagent, and water for adjusting to 1000 mL volume.

As to `O=C(O)CCCCN(CCc1ccccc1OCc1ccc(CCc2ccccc2)cc1)Cc1ccc(C(=O)O)cc1` [Cinaciguat], the “intraocular pressure lowering action” value in data set [1] is listed as “low intraocular pressure lowering action”. With `O=C(O)CCCCN(CCc1ccccc1OC[C@@H]1CCc2ccccc2C1)C1CCCc2cc(C(=O)O)ccc21` (stereo partly drawn) [Compound No. 16, 5-[N-(4-carboxybutyl)-N-[2-[2-((2R)-1,2,3,4-tetrahydronaphthalene-2-ylmethoxy)phenyl]ethyl]amino]-5,6,7,8-tetrahydronaphthalene-2-carboxylic acid], the EC50 – broadly, the concentration giving half of the maximal effect – at human sGC is 7.5 nM. In addition, in data set [2], the log distribution coefficient (logD) (in general, lipophilicity at a set pH, counting ionised and neutral species) is 1.99.

As to `O=C(O)CCCCN(CCc1ccccc1OC[C@H]1CCc2ccccc2C1)C1CCCc2cc(C(=O)O)ccc21` (stereo partly drawn) [Compound No. 17, 5-[N-(4-carboxybutyl)-N-[2-[2-((2S)-1,2,3,4-tetrahydronaphthalene-2-ylmethoxy)phenyl]ethyl]amino]-5,6,7,8-tetrahydronaphthalene-2-carboxylic acid], on human sGC, the concentration giving a half-maximal response (EC50) came out at 11 nM. In addition, in data set [2], the logD stood at 2.

Regarding `O=C(O)CCCCN(CCc1ccccc1OCc1ccc2c(c1)CCCC2)C1CCOc2cc(C(=O)O)ccc21` (stereo not drawn) [Compound No. 18, 4-[N-(4-carboxybutyl)-N-[2-[2-(1,2,3,4-tetrahydronaphthalene-6-ylmethoxy)phenyl]ethyl]amino]-chromane-7-carboxylic acid], the EC50 on human sGC amounted to 2.9 nM. Also, in data set [2], the logD came out at 2.14. On the same counts, the results for `O=C(O)CCCCN(CCc1ccccc1OCc1cc2c(s1)CCCC2)C1CCCc2cc(C(=O)O)ccc21` (stereo not drawn) [Compound No. 19, 5-[N-(4-carboxybutyl)-N-[2-[2-(4,5,6,7-tetrahydrobenzo[b]thiophene-2-ylmethoxy)phenyl]ethyl]amino]-5,6,7,8-tetrahydronaphthalene-2-carboxylic acid] are 33.5 nM and 1.74. For `O=C(O)CCCCN(CCc1ccccc1OCc1ccc2c(c1)CCCC2)C1CCCc2cc(C(=O)O)ccc21` (stereo not drawn) [Compound No. 20, 5-[N-(4-carboxybutyl)-N-[2-[2-(1,2,3,4-tetrahydronaphthalene-6-ylmethoxy)phenyl]ethyl]amino]-5,6,7,8-tetrahydronaphthalene-2-carboxylic acid], at human sGC, the EC50 was determined as 3.96 nM. This compound also came in with a logD in data set [2] of 1.87.

`O=C(O)CCCCN(CCc1ccccc1OCc1ccc(C#CC2CC2)cc1)C1CCCc2cc(C(=O)O)ccc21` (stereo not drawn) [Compound No. 21, 5-[N-(4-carboxybutyl)-N-[2-[2-[4-(2-cyclopropylethynyl)benzyloxy]phenyl]ethyl]amino]-5,6,7,8-tetrahydronaphthalene-2-carboxylic acid]: at human sGC, the EC50 was found to be 15.9 nM. This compound also registered a logD in data set [2] of 2.06. On to `O=C(O)CCCCN(CCc1ccccc1OCc1ccc(COc2ccccc2)cc1)C1CCCc2cc(C(=O)O)ccc21` (stereo not drawn) [Compound No. 22, 5-[N-(4-carboxybutyl)-N-[2-[2-(4-phenoxymethylbenzyloxy)phenyl]ethyl]amino]-5,6,7,8-tetrahydronaphthalene-2-carboxylic acid], for which the EC50 at human sGC came to 8.86 nM. In data set [2], this compound registered a logD of 2.18. Take `O=C(O)CCCCN(Cc1ccc(C(=O)O)cc1)C[C@H](OCc1ccc(Oc2ccccc2)cc1)c1cccc(Cl)c1` [Compound No. 23, (−)-4-([N-(4-carboxybutyl)-N-[(2R)-2-(3-chlorophenyl)-2-[4-(phenyloxy)benzyloxy]ethyl]amino]methyl)benzoic acid]: the EC50 at human sGC was 2.47 nM. Further, the pH-dependent lipophilicity (logD) in data set [2] came out at 2.35.

In the case of `O=C(O)CCCCN(CCc1ccccc1OCc1ccc(OCc2ccccc2)cc1)C1CCOc2cc(C(=O)O)ccc21` (stereo not drawn) [Compound No. 24, 4-[N-[2-[2-(4-benzyloxybenzyloxy)phenyl]ethyl]-N-(4-carboxybutyl)amino]-chromane-7-carboxylic acid], the EC50 at human sGC was 8.73 nM. Further, the logD in data set [2] is 2.4.

For `O=C(O)CCCCN(CCc1ccccc1OCc1ccc(OCc2ccccc2)cc1)C1CCCc2cc(C(=O)O)ccc21` (stereo not drawn) [Compound No. 26, 5-[N-[2-[2-(4-benzyloxybenzyloxy)phenyl]ethyl]amino-N-(4-carboxybutyl)]-5,6,7,8-tetrahydronaphthalene-2-carboxylic acid], on human sGC, the EC50 turned out to be 15.6 nM. The compound also registered a logD in data set [2] of 2.24.

Values taken from US10682323B2, “Therapeutic agent for glaucoma” (TOA EIYO LTD., priority 2016, dated 2020).
